Laboratory results from patent US11117900B2 (Vertex Pharmaceuticals Incorporated, priority 2012, dated 2021).

System: HCT116 colorectal cancer cells
Test: Cisplatin sensitization assay (96 h MTS cell viability);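 note: compound concentration needed to lower the IC50 of Cisplatin alone by a set fold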
Format: cell-based
Conditions: Cisplatin sensitization value
In short: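 The MTS viability read, after 1 h with reagent, followed 96 h of co-treatment at 37° C. in 5% CO2. Both compound and cisplatin were titrated 2-fold from a 10 μM top final concentration in a complete concentration matrix on HCT116 cells. Scores +++/++/+ reflect cisplatin sensitization value ranges.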

Compound	Cisplatin Sensitization Assay
Nc1nn2cc(Cl)cnc2c1C(=O)Nc1cnccc1N1CCn2ccnc2C1 [I-N-44, 2-amino-6-chloro-N-(4-(5,6-dihydroimidazo[1,2-a]pyrazin-7(8H)-yl)pyridin-3-yl)pyrazolo[1,5-a]pyrimidine-3-carboxamide]	++ (Compounds with a Cisplatin sensitization value >0.02 μM but <0.2 μM are marked with “++.”)
CN(C)CC1CCN(c2ccncc2NC(=O)c2c(N)nn3cc(Cl)cnc23)CC1 [I-N-45, 2-amino-6-chloro-N-(4-(4-((dimethylamino)methyl)piperidin-1-yl)pyridin-3-yl)pyrazolo[1,5-a]pyrimidine-3-carboxamide]	++ (Compounds with a Cisplatin sensitization value >0.02 μM but <0.2 μM are marked with “++.”)
COC1(CN(C)C)CCN(c2ccncc2NC(=O)c2c(N)nn3cc(Cl)cnc23)CC1 [I-N-46, 2-amino-6-chloro-N-(4-(4-((dimethylamino)methyl)-4-methoxypiperidin-1-yl)pyridin-3-yl)pyrazolo[1,5-a]pyrimidine-3-carboxamide]	+++ (Compounds with a Cisplatin sensitization value of <0.02 μM are marked with “+++.”)
COCC1CN(c2ccncc2NC(=O)c2c(N)nn3cc(Cl)cnc23)CCN1C (stereo not drawn) [I-N-47, 2-amino-6-chloro-N-(4-(3-(methoxymethyl)-4-methylpiperazin-1-yl)pyridin-3-yl)pyrazolo[1,5-a]pyrimidine-3-carboxamide]	++ (Compounds with a Cisplatin sensitization value >0.02 μM but <0.2 μM are marked with “++.”)
Nc1nn2cc(Cl)cnc2c1C(=O)Nc1cnccc1N1CCN(C2CCC2)CC1 [I-N-48, 2-amino-6-chloro-N-(4-(4-cyclobutylpiperazin-1-yl)pyridin-3-yl)pyrazolo[1,5-a]pyrimidine-3-carboxamide]	++ (Compounds with a Cisplatin sensitization value >0.02 μM but <0.2 μM are marked with “++.”)
CN(C)CCN1CCN(c2ccncc2NC(=O)c2c(N)nn3cc(Cl)cnc23)CC1 [I-N-49, 2-amino-6-chloro-N-(4-(4-(2-(dimethylamino)ethyl)piperazin-1-yl)pyridin-3-yl)pyrazolo[1,5-a]pyrimidine-3-carboxamide]	+++ (Compounds with a Cisplatin sensitization value of <0.02 μM are marked with “+++.”)
CN1CCN(c2cc(N)ncc2NC(=O)c2c(N)nn3cc(Cl)cnc23)CC1 [I-N-50, 2-amino-N-(6-amino-4-(4-methylpiperazin-1-yl)pyridin-3-yl)-6-chloropyrazolo[1,5-a]pyrimidine-3-carboxamide]	+ (Compounds with a Cisplatin sensitization value >0.2 μM but <5 μM are marked with “+.”)
CN1CCN(c2cc(Cl)ncc2NC(=O)c2c(N)nn3cc(Cl)cnc23)CC1 [I-N-52, 2-amino-6-chloro-N-(6-chloro-4-(4-methylpiperazin-1-yl)pyridin-3-yl)pyrazolo[1,5-a]pyrimidine-3-carboxamide]	++ (Compounds with a Cisplatin sensitization value >0.02 μM but <0.2 μM are marked with “++.”)
CN1CCN(c2ccncc2NC(=O)c2c(N)nn3cc(Cl)cnc23)CC1(C)C [I-N-53, 2-amino-6-chloro-N-(4-(3,3,4-trimethylpiperazin-1-yl)pyridin-3-yl)pyrazolo[1,5-a]pyrimidine-3-carboxamide]	++ (Compounds with a Cisplatin sensitization value >0.02 μM but <0.2 μM are marked with “++.”)
CC1CN(c2ccncc2NC(=O)c2c(N)nn3cc(Cl)cnc23)CCN1C (stereo not drawn) [I-N-54, 2-amino-6-chloro-N-(4-(3,4-dimethylpiperazin-1-yl)pyridin-3-yl)pyrazolo[1,5-a]pyrimidine-3-carboxamide]	+++ (Compounds with a Cisplatin sensitization value of <0.02 μM are marked with “+++.”)
Nc1nn2cc(Cl)cnc2c1C(=O)Nc1cnccc1N1CCCC(N)C1 (stereo not drawn) [I-N-55, 2-amino-N-(4-(3-aminopiperidin-1-yl)pyridin-3-yl)-6-chloropyrazolo[1,5-a]pyrimidine-3-carboxamide]	++ (Compounds with a Cisplatin sensitization value >0.02 μM but <0.2 μM are marked with “++.”)
Nc1nn2cc(Cl)cnc2c1C(=O)Nc1cnccc1N1CCN2CCC1CC2 [I-N-56, N-(4-(1,4-diazabicyclo[3.2.2]nonan-4-yl)pyridin-3-yl)-2-amino-6-chloropyrazolo[1,5-a]pyrimidine-3-carboxamide]	++ (Compounds with a Cisplatin sensitization value >0.02 μM but <0.2 μM are marked with “++.”)
Cc1cncc(NC(=O)c2c(N)nn3cc(Cl)cnc23)c1N1CCN(C)CC1 [I-N-57, 2-amino-6-chloro-N-(5-methyl-4-(4-methylpiperazin-1-yl)pyridin-3-yl)pyrazolo[1,5-a]pyrimidine-3-carboxamide]	+++ (Compounds with a Cisplatin sensitization value of <0.02 μM are marked with “+++.”)
Nc1nn2cc(Cl)cnc2c1C(=O)Nc1cnccc1N1CCN(C2COC2)CC1 [I-N-58, 2-amino-6-chloro-N-(4-(4-(oxetan-3-yl)piperazin-1-yl)pyridin-3-yl)pyrazolo[1,5-a]pyrimidine-3-carboxamide]	++ (Compounds with a Cisplatin sensitization value >0.02 μM but <0.2 μM are marked with “++.”)
CN1CCN(c2ccncc2NC(=O)c2c(N)nn3cc(Cl)cnc23)CC1 [I-N-59, 2-amino-6-chloro-N-(4-(4-methylpiperazin-1-yl)pyridin-3-yl)pyrazolo[1,5-a]pyrimidine-3-carboxamide]	++ (Compounds with a Cisplatin sensitization value >0.02 μM but <0.2 μM are marked with “++.”)
COCCN1CCN(c2ccncc2NC(=O)c2c(N)nn3cc(Cl)cnc23)CC1 [I-N-60, 2-amino-6-chloro-N-(4-(4-(2-methoxyethyl)piperazin-1-yl)pyridin-3-yl)pyrazolo[1,5-a]pyrimidine-3-carboxamide]	+++ (Compounds with a Cisplatin sensitization value of <0.02 μM are marked with “+++.”)
CN1CCN2CCN(c3ccncc3NC(=O)c3c(N)nn4cc(Cl)cnc34)CC2C1 (stereo not drawn) [I-N-61, 2-amino-6-chloro-N-(4-(8-methylhexahydro-1H-pyrazino[1,2-a]pyrazin-2(6H)-yl)pyridin-3-yl)pyrazolo[1,5-a]pyrimidine-3-carboxamide]	+++ (Compounds with a Cisplatin sensitization value of <0.02 μM are marked with “+++.”)
CC1(N2CCN(c3ccncc3NC(=O)c3c(N)nn4cc(F)cnc34)CC2)COC1 [I-N-62, 2-amino-6-fluoro-N-(4-(4-(3-methyloxetan-3-yl)piperazin-1-yl)pyridin-3-yl)pyrazolo[1,5-a]pyrimidine-3-carboxamide]	++ (Compounds with a Cisplatin sensitization value >0.02 μM but <0.2 μM are marked with “++.”)
CN1CCN(c2ccncc2NC(=O)c2c(N)nn3cc(Cl)cnc23)CC1CO (stereo not drawn) [I-N-63, 2-amino-6-chloro-N-(4-(3-(hydroxymethyl)-4-methylpiperazin-1-yl)pyridin-3-yl)pyrazolo[1,5-a]pyrimidine-3-carboxamide]	++ (Compounds with a Cisplatin sensitization value >0.02 μM but <0.2 μM are marked with “++.”)
Nc1nn2cc(Cl)cnc2c1C(=O)Nc1cnccc1N1CCN(C2CC2)CC1 [I-N-64, 2-amino-6-chloro-N-(4-(4-cyclopropylpiperazin-1-yl)pyridin-3-yl)pyrazolo[1,5-a]pyrimidine-3-carboxamide]	+++ (Compounds with a Cisplatin sensitization value of <0.02 μM are marked with “+++.”)
Nc1nn2cc(Cl)cnc2c1C(=O)Nc1cnccc1N1CCN2CCC[C@@H]2C1 [I-N-65, (R)-2-amino-6-chloro-N-(4-(hexahydropyrrolo[1,2-a]pyrazin-2(1H)-yl)pyridin-3-yl)pyrazolo[1,5-a]pyrimidine-3-carboxamide]	+ (Compounds with a Cisplatin sensitization value >0.2 μM but <5 μM are marked with “+.”)
CC1(O)CCN(c2ccncc2NC(=O)c2c(N)nn3cc(Cl)cnc23)CC1 [I-N-66, 2-amino-6-chloro-N-(4-(4-hydroxy-4-methylpiperidin-1-yl)pyridin-3-yl)pyrazolo[1,5-a]pyrimidine-3-carboxamide]	+++ (Compounds with a Cisplatin sensitization value of <0.02 μM are marked with “+++.”)
Nc1nn2cc(Cl)cnc2c1C(=O)Nc1cnccc1N1CCN(CC(F)(F)F)CC1 [I-N-67, 2-amino-6-chloro-N-(4-(4-(2,2,2-trifluoroethyl)piperazin-1-yl)pyridin-3-yl)pyrazolo[1,5-a]pyrimidine-3-carboxamide]	+++ (Compounds with a Cisplatin sensitization value of <0.02 μM are marked with “+++.”)
Nc1nn2cc(Cl)cnc2c1C(=O)Nc1cnccc1N1CC[S+]([O-])CC1 [I-N-68, 2-amino-6-chloro-N-(4-(1-oxidothiomorpholino)pyridin-3-yl)pyrazolo[1,5-a]pyrimidine-3-carboxamide]	+++ (Compounds with a Cisplatin sensitization value of <0.02 μM are marked with “+++.”)
CC(C)(O)C1CCN(c2ccncc2NC(=O)c2c(N)nn3cc(Cl)cnc23)CC1 [I-N-69, 2-amino-6-chloro-N-(4-(4-(2-hydroxypropan-2-yl)piperidin-1-yl)pyridin-3-yl)pyrazolo[1,5-a]pyrimidine-3-carboxamide]	+++ (Compounds with a Cisplatin sensitization value of <0.02 μM are marked with “+++.”)
Nc1nn2cc(Cl)cnc2c1C(=O)Nc1cnccc1N1CCNC(C(F)(F)F)C1 (stereo not drawn) [I-N-70, 2-amino-6-chloro-N-(4-(3-(trifluoromethyl)piperazin-1-yl)pyridin-3-yl)pyrazolo[1,5-a]pyrimidine-3-carboxamide]	++ (Compounds with a Cisplatin sensitization value >0.02 μM but <0.2 μM are marked with “++.”)
Nc1nn2cc(Cl)cnc2c1C(=O)Nc1cnccc1N1CCN2CCC[C@H]2C1 [I-N-71, (S)-2-amino-6-chloro-N-(4-(hexahydropyrrolo[1,2-a]pyrazin-2(1H)-yl)pyridin-3-yl)pyrazolo[1,5-a]pyrimidine-3-carboxamide]	+++ (Compounds with a Cisplatin sensitization value of <0.02 μM are marked with “+++.”)
